Laboratory results published in US20250325675A1, “APTAMER, CONJUGATE, COMPOSITION, METHOD FOR PREPARING SAME, AND USE THEREOF” (priority 2022, published 2025).
{Cy5} = cyanine 5 fluorescent dye

Assays:
[1] = system: MCF-7 human breast cancer cells; experiment: High content imaging: entry of conjugates into MCF-7 cells; assay type: cell-based; settings: 100 nM, 30 min 37°C
Experimental: (§1) In this experiment, the entry of conjugate AP1 provided by the present disclosure and comparative conjugate comparative AP10 into different cells was observed by a PerkinElmer High Content Imaging system (Operatta).
(§2) U118MG glioma cells, SVGp12 normal astrocytes, T98G human brain glioma cells, U251 human glioma cells, A549 human non-small cell lung cancer cells, MCF-7 human breast cancer cells, and 293T human kidney epithelial cells were all purchased from the Shanghai Cell Bank of Chinese Academy of Sciences. […] The supernatant was aspirated and DPBS buffer (purchased from Thermo Fisher) was added to wash the plate 2 times (100 μL each time).
(§3) Conjugate AP1 prepared above and yeast tRNA were respectively formulated into conjugate solution 2A with DMEM medium, and the conjugate solution 2A comprised yeast tRNA at a final concentration of 100 μg/mL and conjugate AP1 at a final concentration of 100 nM. […]
(§4) Normalization was performed according to the mean fluorescence intensity of control group 2Y, that is, subtracting the mean fluorescence intensity of control group 2Y from the fluorescence intensity of test group 2X before performing imaging.

[2] = system: U118-MG neuroglioma cells; experiment: CCK8 cell viability, U118-MG neuroglioma cells (Experimental Example 12); assay type: cell-based, human; settings: 72 h; AP1 50-800 nM, conjugate 19 25-800 nM; CCK8, OD450
Experimental: U118MG neuroglioma cells were purchased from Jennio; SVGp12 human astrocytes were purchased from the Shanghai Cell Bank of Chinese Academy of Sciences; CCK8 kit was purchased from DOJINDO Laboratories.
U118MG cells and SVGp12 cells in the logarithmic growth phase were selected and seeded into a 96-well plate of a CCK8 kit at 5000 cells/well, cultured at 37° C. with 5% CO2 for 24 h. U118-MG cells and SVGp12 cells to be detected were obtained when the cell confluence was observed as 80% under microscope. […]
AP1 solution 1, AP1 solution 2, AP1 solution 3, and AP1 solution 4 were respectively added into U118-MG cells to be detected, and incubated at 37° C. for 72 h in the dark. […]
Conjugate 19 solution 1, Conjugate 19 solution 2, Conjugate 19 solution 3, Conjugate 19 solution 4, Conjugate 19 solution 5, Conjugate 19 solution 6, and Conjugate 19 solution 7 were respectively added into U118-MG cells to be detected, and incubated at 37° C. for 72 h in the dark. […]
CC8 kit was used to detect UV absorbance of test groups and control groups above at the detection wavelength of 450 nm in UV absorption spectrum according to the instructions, and the average value of the repeated experiments was taken for each group. Cell viability was calculated according to the following equation: […]

[3] = system: U118MG glioma subcutaneous tumor; experiment: In vivo distribution in U118MG cell subcutaneous tumor model mice (Experimental Example 4); design: species or system NOD-SCID mice; settings: mouse, in vivo
Experimental: U118MG human glioma cells in the logarithmic growth phase were selected and digested (0.25% pancreatic enzyme).
The mice were further fed for 20 days after injection.
The mice inoculated with U118MG above were randomly divided into 3 groups (4 mice per group). For the 4 mice per group, the administration volume was calculated according to 10 μL/g body weight, and AP1, AP2 and comparative AP11 were respectively administered to different groups of mice by tail vein injection and designated as test group 4A1, test group 4A2 and control group 4A3. Thus, the administration dosage of each mouse was 3 mg/kg (based on aptamer). Another mouse inoculated with U118MG above was administered with 1×DMEM medium by tail vein injection (the administration volume was 10 μL/g body weight), and designated as blank control group 4Y.

U251 human glioma cells = experiment: High content imaging: entry of conjugates into U251 cells; assay type: cell-based; settings: 100 nM, 30 min 37°C
Experimental: as §1, §2, §3, §4

## CY5-CfUfGGAGUfUfCfAGACfGUfGUfUfGCfUfCfUfUfCfCfGAUfCfUfCf (CUGGAGUUCAGACGUGUUGCUCUUCCGAUCUC; 2'-fluoro at CU, RNA at AG, 5' {Cy5}, backbone not given here) [AP1]
[1]
  Cy5 fluorescence signal in cells: strong Cy5 fluorescence signal
[2]
  cell viability of tumor cells: no effect on cell viability
[3]
  fluorescence signal in mice / at site of tumor inoculation: strong fluorescence signal at the sites of tumor inoculation
U251 human glioma cells
  Cy5 fluorescence signal in cells: strong Cy5 fluorescence signal
